Laboratory results from PubChem BioAssay AID2060900 (Molecular Pharmacology Branch, DTP, NCI, 2025).
Values joined by “and” are separate entries in the source; they are usually repeats but may differ in a detail not shown here. Identical values can stand only once. Each block holds one compound with its values, some of them ahead of it.

System: 521955-158-R2-J5-PDC complex spheroids, viability
Test: Anticancer human tumor 521955-158-R2-J5-PDC patient-derived pancreatic carcinoma cell line growth inhibition [RAS]
Settings: for viability, T/C: stronger effect = lower value
How it was run: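 Multi-cell-type spheroids: tumor cells plus HUVEC endothelial cells and mesenchymal stem cells. RAS-pathway inhibitors were combined with targeted agents, each dosed in half-log steps down from clinical Cmax, or from 10 microM when Cmax was unknown.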

[1] = curve of first compound, second compound 0.000949 µM
[2] = curve of first compound, second compound 0.003 µM
[3] = curve of first compound, second compound 0.00949 µM
[4] = curve of first compound, second compound 0.03 µM
[5] = curve of first compound, second compound 0.0949 µM
[6] = curve of first compound, second compound 0.3 µM
[7] = second compound 0.000949 µM, first compound 0.0316 µM
[8] = second compound 0.000949 µM, first compound 0.1 µM
[9] = second compound 0.000949 µM, first compound 0.316 µM
[10] = second compound 0.000949 µM, first compound 1 µM
[11] = second compound 0.003 µM, first compound 0.0316 µM
[12] = second compound 0.003 µM, first compound 0.1 µM
[13] = second compound 0.003 µM, first compound 0.316 µM
[14] = second compound 0.003 µM, first compound 1 µM
[15] = second compound 0.00949 µM, first compound 0.0316 µM
[16] = second compound 0.00949 µM, first compound 0.1 µM
[17] = second compound 0.00949 µM, first compound 0.316 µM
[18] = second compound 0.00949 µM, first compound 1 µM
[19] = second compound 0.03 µM, first compound 0.0316 µM
[20] = second compound 0.03 µM, first compound 0.1 µM
[21] = second compound 0.03 µM, first compound 0.316 µM
[22] = second compound 0.03 µM, first compound 1 µM
[23] = second compound 0.0949 µM, first compound 0.0316 µM
[24] = second compound 0.0949 µM, first compound 0.1 µM
[25] = second compound 0.0949 µM, first compound 0.316 µM
[26] = second compound 0.0949 µM, first compound 1 µM
[27] = second compound 0.3 µM, first compound 0.0316 µM
[28] = second compound 0.3 µM, first compound 0.1 µM
[29] = second compound 0.3 µM, first compound 0.316 µM
[30] = second compound 0.3 µM, first compound 1 µM
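Also: compound exposure lasted seven days before the viability read.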
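For viability, T/C in this document: spheroids also contain HUVEC endothelial cells and mesenchymal stem cells as stroma.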

IC50 [1]: < 31.6 nM | IC50 [2]: < 31.6 nM | IC50 [3]: < 31.6 nM | IC50 [4]: < 31.6 nM | IC50 [5]: < 31.6 nM | IC50 [6]: < 31.6 nM
Structure (SMILES): CC(Nc1ccc2c(c1)OCCn1cc(N3C(=O)OCC3C(F)F)nc1-2)C(N)=O (centres undefined) + CCn1c(-c2cc(N3CCN(C)CC3)cnc2C(C)OC)c2c3cc(ccc31)-c1csc(n1)CC(NC(=O)C1CC1C)C(=O)N1CCCC(N1)C(=O)OCC(C)(C)C2
viability, T/C [7]: 31.7% | viability, T/C [8]: 24.1% | viability, T/C [9]: 21.9% | viability, T/C [10]: 13.8% | viability, T/C (second compound 0.000949 µM, first compound 3.16 µM): 14.3% | viability, T/C (second compound 0.000949 µM, first compound 10 µM): 11.4% | viability, T/C [11]: 32.7% | viability, T/C [12]: 22.1% | viability, T/C [13]: 20.1% | viability, T/C [14]: 13.7% | viability, T/C (second compound 0.003 µM, first compound 3.16 µM): 8.65% | viability, T/C (second compound 0.003 µM, first compound 10 µM): 7.85% | viability, T/C [15]: 31.2% | viability, T/C [16]: 21.7% | viability, T/C [17]: 11.8% | viability, T/C [18]: 8.38% | viability, T/C (second compound 0.00949 µM, first compound 3.16 µM): 7.16% | viability, T/C (second compound 0.00949 µM, first compound 10 µM): 4.66% | viability, T/C [19]: 12.8% | viability, T/C [20]: 10.3% | viability, T/C [21]: 11.4% | viability, T/C [22]: 3.73% | viability, T/C (second compound 0.03 µM, first compound 3.16 µM): 6.17% | viability, T/C (second compound 0.03 µM, first compound 10 µM): 1.25% | viability, T/C [23]: 7.65% | viability, T/C [24]: 6.24% | viability, T/C [25]: 4.21% | viability, T/C [26]: 1.25% | viability, T/C (second compound 0.0949 µM, first compound 3.16 µM): 5.01% | viability, T/C (second compound 0.0949 µM, first compound 10 µM): 1.25% | viability, T/C [27]: 10.2% | viability, T/C [28]: 6.36% | viability, T/C [29]: 5.9% | viability, T/C [30]: 3.16% | viability, T/C (second compound 0.3 µM, first compound 3.16 µM): 3.15% | viability, T/C (second compound 0.3 µM, first compound 10 µM): 0.45%

IC50 (curve of first compound, second compound 0.0316 µM): 1.97 nM | IC50 (curve of first compound, second compound 0.1 µM): 1.08 nM | IC50 (curve of first compound, second compound 0.316 µM): < 0.316 nM | IC50 (curve of first compound, second compound 1 µM): < 0.316 nM | IC50 (curve of first compound, second compound 3.16 µM): < 0.316 nM | IC50 (curve of first compound, second compound 10 µM): < 0.316 nM
Structure (SMILES): CC(C)n1nc(-c2ccc3oc(N)nc3c2)c2c(N)ncnc21 + C#Cc1c(F)ccc2cc(O)cc(-c3ncc4c(N5CC6CCC(C5)N6)nc(OCC56CCCN5CC(F)C6)nc4c3F)c12
viability, T/C (second compound 0.0316 µM, first compound 0.000316 µM): 83.6% | viability, T/C (second compound 0.0316 µM, first compound 0.001 µM): 58.1% | viability, T/C (second compound 0.0316 µM, first compound 0.00316 µM): 46.7% | viability, T/C (second compound 0.0316 µM, first compound 0.01 µM): 27.2% | viability, T/C (second compound 0.0316 µM, first compound 0.0316 µM): 20.3% | viability, T/C (second compound 0.0316 µM, first compound 0.1 µM): 16.5% | viability, T/C (second compound 0.1 µM, first compound 0.000316 µM): 51.2% | viability, T/C (second compound 0.1 µM, first compound 0.001 µM): 51.9% | viability, T/C (second compound 0.1 µM, first compound 0.00316 µM): 40.8% | viability, T/C (second compound 0.1 µM, first compound 0.01 µM): 22.4% | viability, T/C (second compound 0.1 µM, first compound 0.0316 µM): 12.6% | viability, T/C (second compound 0.1 µM, first compound 0.1 µM): 12.4% | viability, T/C (second compound 0.316 µM, first compound 0.000316 µM): 42.1% | viability, T/C (second compound 0.316 µM, first compound 0.001 µM): 56.1% | viability, T/C (second compound 0.316 µM, first compound 0.00316 µM): 40.2% | viability, T/C (second compound 0.316 µM, first compound 0.01 µM): 24.4% | viability, T/C (second compound 0.316 µM, first compound 0.0316 µM): 13.6% | viability, T/C (second compound 0.316 µM, first compound 0.1 µM): 8.05% | viability, T/C (second compound 1 µM, first compound 0.000316 µM): 49.6% | viability, T/C (second compound 1 µM, first compound 0.001 µM): 45.1% | viability, T/C (second compound 1 µM, first compound 0.00316 µM): 40.4% | viability, T/C (second compound 1 µM, first compound 0.01 µM): 22.1% | viability, T/C (second compound 1 µM, first compound 0.0316 µM): 13.7% | viability, T/C (second compound 1 µM, first compound 0.1 µM): 8.36% | viability, T/C (second compound 3.16 µM, first compound 0.000316 µM): 42.6% | viability, T/C (second compound 3.16 µM, first compound 0.001 µM): 44.6% | viability, T/C (second compound 3.16 µM, first compound 0.00316 µM): 33.2% | viability, T/C (second compound 3.16 µM, first compound 0.01 µM): 21.3% | viability, T/C (second compound 3.16 µM, first compound 0.0316 µM): 11% | viability, T/C (second compound 3.16 µM, first compound 0.1 µM): 7.2% | viability, T/C (second compound 10 µM, first compound 0.000316 µM): 38.9% | viability, T/C (second compound 10 µM, first compound 0.001 µM): 33.8% | viability, T/C (second compound 10 µM, first compound 0.00316 µM): 21.3% | viability, T/C (second compound 10 µM, first compound 0.01 µM): 17% | viability, T/C (second compound 10 µM, first compound 0.0316 µM): 10.4% | viability, T/C (second compound 10 µM, first compound 0.1 µM): 7.51%

IC50 (curve of compound): > 10000 nM and 1720 nM
Structure (SMILES): NC1c2ccccc2OC12CCN(c1cnc3c(N4CCCc5ncccc54)n[nH]c3n1)CC2 (centres undefined)
viability, T/C (compound 0.0316 µM): 67.5% [middle of 4 runs] | viability, T/C (compound 0.1 µM): 58.8% [middle of 4 runs] | viability, T/C (compound 0.316 µM): 55.2% [middle of 4 runs] | viability, T/C (compound 1 µM): 53.2% [middle of 4 runs] | viability, T/C (compound 3.16 µM): 54.8% [middle of 4 runs] | viability, T/C (compound 10 µM): 61.6% [middle of 4 runs]

The next lines start with the compound.

Structure (SMILES): Nc1ccn(C2OC(CO)C(O)C2(F)F)c(=O)n1 (centres undefined) + CCn1c(-c2cc(N3CCN(C)CC3)cnc2C(C)OC)c2c3cc(ccc31)-c1csc(n1)CC(NC(=O)C1CC1C)C(=O)N1CCCC(N1)C(=O)OCC(C)(C)C2
IC50 [1]: < 3.16 nM | IC50 [2]: < 3.16 nM | IC50 [3]: < 3.16 nM | IC50 [4]: < 3.16 nM | IC50 [5]: < 3.16 nM | IC50 [6]: < 3.16 nM | viability, T/C (second compound 0.000949 µM, first compound 0.00316 µM): 35.3% | viability, T/C (second compound 0.000949 µM, first compound 0.01 µM): 29% | viability, T/C [7]: 30.2% | viability, T/C [8]: 21% | viability, T/C [9]: 22.9% | viability, T/C [10]: 12% | viability, T/C (second compound 0.003 µM, first compound 0.00316 µM): 39% | viability, T/C (second compound 0.003 µM, first compound 0.01 µM): 33.4% | viability, T/C [11]: 36% | viability, T/C [12]: 28% | viability, T/C [13]: 20.5% | viability, T/C [14]: 17.2% | viability, T/C (second compound 0.00949 µM, first compound 0.00316 µM): 32.2% | viability, T/C (second compound 0.00949 µM, first compound 0.01 µM): 28.8% | viability, T/C [15]: 29.9% | viability, T/C [16]: 21.4% | viability, T/C [17]: 19.8% | viability, T/C [18]: 20.6% | viability, T/C (second compound 0.03 µM, first compound 0.00316 µM): 22.5% | viability, T/C (second compound 0.03 µM, first compound 0.01 µM): 20.6% | viability, T/C [19]: 18.3% | viability, T/C [20]: 19.4% | viability, T/C [21]: 13.7% | viability, T/C [22]: 12.7% | viability, T/C (second compound 0.0949 µM, first compound 0.00316 µM): 10.2% | viability, T/C (second compound 0.0949 µM, first compound 0.01 µM): 11.2% | viability, T/C [23]: 13.3% | viability, T/C [24]: 12.4% | viability, T/C [25]: 9.85% | viability, T/C [26]: 7.8% | viability, T/C (second compound 0.3 µM, first compound 0.00316 µM): 13.4% | viability, T/C (second compound 0.3 µM, first compound 0.01 µM): 9.3% | viability, T/C [27]: 11.2% | viability, T/C [28]: 11.1% | viability, T/C [29]: 9.17% | viability, T/C [30]: 11.8%

Structure (SMILES): CC1(O)CCCC1n1c(=O)c(C(F)F)cc2cnc(NC3CCN(S(C)(=O)=O)CC3)nc21 (centres undefined)
viability, T/C (compound 0.0316 µM): 92.5% [middle of 4 runs] | viability, T/C (compound 0.1 µM): 76.6% [middle of 4 runs] | viability, T/C (compound 1 µM): 75.7% [middle of 4 runs] | viability, T/C (compound 3.16 µM): 118% [middle of 4 runs] | viability, T/C (compound 10 µM): 14.9% [middle of 4 runs] | IC50 (curve of compound): 5.85 µM [middle of 4 runs]
